Reference: patent US20040219201A1, “Tempamine compositions and methods of use” (priority 2001, published 2004)

Legend:
[1] = system: MCF-7 (human breast adenocarcinoma); assay: Cytotoxicity assay (methylene blue); nitroxides alone or doxorubicin plus tempamine; type: cell-based
Description: (§1) As described in Example 1, the cytotoxicity of tempamine was determined on three cell lines, MCF-7 (human breast adenocarcinoma), M-109S (doxorubicin-sensitive human breast carcinoma), and M-109R (doxorubicin-resistant human breast carcinoma). The effect of free tempamine on cell proliferation was determined by a methylene blue assay as described in Example 1B.
FIG. 4 is a plot comparing the percent survival of MCF-7 human breast carcinoma cells at various doses of tempamine (closed circles) and tempol (open circles) in vitro. The cells were analyzed after 72 hours of exposure to the nitroxides. Tempamine and tempol cell growth inhibitory activities were of similar magnitude.
(§2) In yet another aspect, the invention contemplates administration of tempamine in combination with chemotherapeutic agent. […] Doxorubicin was chosen as a model chemotherpeutic agent. The enhancement of doxorubicin cytotoxicity by tempamine was tested on three cell lines, as described in Example 1A. A cytotoxicity assay as described in Example 1B was used. Two of the cell lines, MCF-7 and M-109S, were doxorubicin-sensitive lines and one cell line, M-109R, was doxorubicin resistant. MCF-7 cells are more sensitive to tempamine (100 μM caused 75% growth inhibition), but are less sensitive to doxorubicin, than are M-109S cells.
(§3) MCF-7 (human breast adenocarcinoma), M-109S (doxorubicin-sensitive human breast carcinoma), and M-109R (doxorubicin-resistant human breast carcinoma) were maintained in RPMI medium (Biological Industries, Beit HaEmek, Israel) supplemented with 10% fetal calf serum (FCS). The cell lines were maintained under standard culture conditions at 37° C. in a humidified 5% CO2 atmosphere.
(§4) The effect of tempamine on cell proliferation was determined by the methylene blue assay (Horowitz, A. T., et al., Biochim BiophysActa. 1109:203, (1992)). Briefly, cells were seeded onto 96-well plates (MCF cells at a density of 6×10^3 cells per well, and M-109S and M-109R at a density of 1.5×10^3 cells per well) and allowed to grow for 24 hours prior to treatment with different concentrations of tempamine. After the addition of tempamine (5×10^−5 to 4×10^−4), the cells were incubated in RPMI +10% FCS for four days without change of medium. Then the cells were fixed with 2.5% glutaraldehyde, stained with methylene blue and assayed spectrophotometrically.

[2] = system: M-109R (doxorubicin-resistant human breast carcinoma); assay: Cytotoxicity assay (methylene blue); tempamine alone or doxorubicin plus tempamine; type: cell-based
Description: as §1, §2, §3, §4

[3] = system: M-109S (doxorubicin-sensitive human breast carcinoma); assay: as above; type: cell-based; settings: Homo sapiens, read-out: IC50 (cytotoxicity)
Description: as §1, §2, §3, §4

[4] = n-octanol/water partition coefficient (Kp); type: physicochemical
Description: Free tempamine gives well-defined peaks in both solutions of n-octanol and water. The peak area (or height) is proportional to the tempamine concentrations in the aqueous phase and in n-octanol. The tempaamine concentration in both solvents was determined from a calibration curve of temparnine in each of the two solvents n-octanol and water.
A. Partition Coefficients The n-octanol/water partition coefficient, Kp, of tempamine was measured to estimate its phase distribution in the liposomes, according to the procedure previously described (Samuni, A. et al., Free-Radic Biol Med., 22:1165 (1997)). Partition coefficients were measured at various pH levels (pH 4.0, 7.0, and 10.6), at tempamine concentrations of 2.0 mM and 20.0 mM and at different concentrations of ammonium sulfate (20-400 mM). The volume of each phase was 1 ml.

[5] = Percent encapsulation of tempamine in liposomes (EPR); type: physicochemical; settings: 0.2 mM TMN
Description: The amount of tempamine encapsulated in the liposomes was determined using EPR, as described in Example 3.
EPR spectrometry was employed to detect tempamine concentration using a JES-RE3X EPR spectrometer (JEOL Co., Japan) (Fuchs, J., et al., Free Radic. Biol. Med. 22:967-976, (1997)). Samples were drawn by a syringe into a gas-permeable Teflon capillary tube of 0.81 mm i.d. and 0.05 mm wall thickness (Zeus Industrial Products, Raritan, N.J., USA). The capillary tube was inserted into a 2.5-mm-i.d. quartz tube open at both ends, and placed in the EPR cavity. EPR spectra were recorded with center field set at 329 mT, 100 kHz modulation frequency, 0.1 mT modulation amplitude, and nonsaturating microwave power. […]
The amount of entrapped tempamine of liposomes prepared according to Example 2 was determined by the following procedure. First, the total tempamine in the post-loading liposome preparation (TMNmix) was measured. Then, the amount of tempamine in the post-loading liposome preparation in the presence of potassium ferricyanide, an EPR broadening agent that eliminates the signal of free (non-liposomal) tempamine, was measured. […] Then the total temparifine after releasing it from liposomes by nigericin (TMNnigencia) was measured. […]
The percent encapsulation and the quenching factor were calculated as follows: […]

[6] = n-octanol/water partition coefficient (Kp); type: physicochemical; settings: ammonium sulfate 0 mM; TMN 20 μmole
[7] = ammonium sulfate 20 mM, TMN 2 μmole
[8] = ammonium sulfate 20 mM, TMN 20 μmole
[9] = ammonium sulfate 150 mM, TMN 2 μmole
[10] = ammonium sulfate 150 mM, TMN 20 μmole
[11] = ammonium sulfate 400 mM, TMN 2 μmole
[12] = ammonium sulfate 400 mM, TMN 20 μmole

Compound: CC1(C)CC(N)CC(C)(C)N1[O] [tempamine, 2,2,6,6-tetramethylpiperidine-4-amino-1-oxyl]
- IC50 ([1]; Homo sapiens, MCF7, 72 h, read-out: IC50 (cell growth inhibition)): 210 µM
- growth inhibition ([1]; MCF-7, 100 μM tempamine): 75%
- IC50 ([2]; Homo sapiens, read-out: IC50 (cytotoxicity)): ~700 µM
- cell sensitivity to doxorubicin ([2]; M-109R, addition of 200 μM tempamine): enhanced cell sensitivity to doxorubicin
- IC50 [3]: ~700 µM
- n-octanol/aqueous phase (Kp), pH 7 ([4]; ammonium sulfate 0 mM, TMN 20 μmole): 0.278
- n-octanol/aqueous phase (Kp), pH 4 [4, 7]: 0.031
- n-octanol/aqueous phase (Kp), pH 7 [4, 7]: 0.048
- n-octanol/aqueous phase (Kp), pH 10.6 [4, 7]: 2.418
- n-octanol/aqueous phase (Kp), pH 4 [4, 8]: 0.074
- n-octanol/aqueous phase (Kp), pH 7 [4, 8]: 0.116
- n-octanol/aqueous phase (Kp), pH 10.6 [4, 8]: 2.386
- n-octanol/aqueous phase (Kp), pH 4 [4, 9]: 0.024
- n-octanol/aqueous phase (Kp), pH 7 [4, 9]: 0.055
- n-octanol/aqueous phase (Kp), pH 10.6 [4, 9]: 2.184
- n-octanol/aqueous phase (Kp), pH 4 [4, 10]: 0.049
- n-octanol/aqueous phase (Kp), pH 7 [4, 10]: 0.038
- n-octanol/aqueous phase (Kp), pH 10.6 [4, 10]: 3.969
- n-octanol/aqueous phase (Kp), pH 4 [4, 11]: 0.028
- n-octanol/aqueous phase (Kp), pH 7 [4, 11]: 0.040
- n-octanol/aqueous phase (Kp), pH 10.6 [4, 11]: 3.005
- n-octanol/aqueous phase (Kp), pH 4 [4, 12]: 0.046
- n-octanol/aqueous phase (Kp), pH 7 [4, 12]: 0.034
- n-octanol/aqueous phase (Kp), pH 10.6 [4, 12]: 4.569
- % Encapsulation ± S.D. ([5]; liposomes with NH4+ gradient): 84.1 ± 8.4^3%
- % Encapsulation ± S.D. ([5]; liposomes without NH4+ gradient): 6 ± 0.6%
- n-octanol/aqueous phase (Kp), pH 4 [6]: 0.111
- n-octanol/aqueous phase (Kp), pH 10.6 [6]: 2.331
